This note sets out measurements from patent US20230107642A1 (Erasca, Inc., priority 2020, published 2023).

Molecules are shown by their SMILES.

The first experiment deals with T1, K-Ras G12C (Homo sapiens, UniProt P01116, G12C).
T1 construct: This protein contained 188 amino acids in total, including an N-terminal 6-Histidine tag; made in house; host or cells: E. coli BL21
Briefly: CAF assay (% CAF; method in Example 7, not in this part). Format: binding. Particulars: 10 uM compound, 1 h incubation.
Regarding `C=CC(=O)N1C[C@H](C)N(c2nc(=O)n3c4c(c(-c5ccc(F)cc5)c(Cl)cc24)SC[C@@H]3CN2CCn3c(nnc3C(F)(F)F)C2)C[C@H]1C` [Example 445, (S)-7-((2S,5R)-4-acryloyl-2,5-dimethylpiperazin-1-yl)-9-chloro-10-(4-fluorophenyl)-3-((3-(trifluoromethyl)-5,6-dihydro-[1,2,4]triazolo[4,3-a]pyrazin-7(8H)-yl)methyl)-2H-[1,4]thiazino[2,3,4-ij]quinazolin-5(3H)-one], the “% CAF @ 10 uM, 1h” value is 68.2%. Take `C=CC(=O)N1CCN(c2nc(=O)n3c4c(c(-c5cc(Cl)c(F)cc5F)c(C(F)(F)F)cc24)SC[C@H](OC)C3)CC1` [Example 534, (3R)-8-(4-acryloylpiperazin-1-yl)-11-(5-chloro-2,4-difluorophenyl)-3-methoxy-10-(trifluoromethyl)-3,4-dihydro-2H,6H-[1,4]thiazepino[2,3,4-ij]quinazolin-6-one]: the “% CAF @ 10 uM, 1h” value came out at 97%. On the same count and under the same terms, with `C=CC(=O)N1CCN(c2nc(=O)n3c4c(c(-c5cc(F)c(F)cc5F)c(C(F)(F)F)cc24)SC[C@@H]3COCOC)[C@@H](C)C1` [Example 522, (3S)-7-((S)-4-acryloyl-2-methylpiperazin-1-yl)-3-((methoxymethoxy)methyl)-9-(trifluoromethyl)-10-(2,4,5-trifluorophenyl)-2H-[1,4]thiazino[2,3,4-ij]quinazolin-5(3H)-one] the figure was 72.4%. On the same count and under the same terms, with `C=CC(=O)N1[C@H](C)CN(c2nc(=O)n3c4c(c(-c5cc(Cl)c(F)cc5F)c(C(F)(F)F)cc24)SC[C@@H]3CO)C[C@@H]1C` [Example 568, (3S)-7-((3S,5R)-4-acryloyl-3,5-dimethylpiperazin-1-yl)-10-(5-chloro-2,4-difluorophenyl)-3-(hydroxymethyl)-9-(trifluoromethyl)-2H-[1,4]thiazino[2,3,4-ij]quinazolin-5(3H)-one] the figure was 52.3%; with `C=CC(=O)N1CCN(c2nc(=O)n3c4c(c(-c5ccc(F)cc5Cl)c(Cl)cc24)SCC3)[C@@H](C)C1` [Example 427, 7-((S)-4-acryloyl-2-methylpiperazin-1-yl)-9-chloro-10-(2-chloro-4-fluorophenyl)-2,3-dihydro-5H-[1,4]thiazino[2,3,4-ij]quinazolin-5-one], 63.5%.

Staying with this experiment, now noted: 10 uM, 1 h; Table 3.
As for `C=CC(=O)N1CCN(c2nc(=O)n3c4c(c(-c5ccc(F)cc5F)c(Cl)cc24)SCC3)CC12CN(C)C2=O` (stereo not drawn) [Example 133, 7-(5-acryloyl-2-methyl-1-oxo-2,5,8-triazaspiro[3.5]nonan-8-yl)-9-chloro-10-(2,4-difluorophenyl)-2,3-dihydro-5H-[1,4]thiazino[2,3,4-ij]quinazolin-5-one], the “% CAF @ 10 uM, 1h” value is 51.9%.

Take `C[C@H]1CN(C(=O)/C=C/C(F)F)CCN1c1nc(=O)n2c3c(c(-c4ccc(Cl)c(F)c4)c(Cl)cc13)SCC2` [Example 80, (S,E)-9-chloro-10-(4-chloro-3-fluorophenyl)-7-(4-(4,4-difluorobut-2-enoyl)-2-methylpiperazin-1-yl)-2,3-dihydro-5H-[1,4]thiazino[2,3,4-ij]quinazolin-5-one]: the “% CAF @ 10 uM, 1h” value is recorded as 93.5%.

Turning to `C=CC(=O)N1CCN(c2nc(=O)n3c4c(c(-c5cc(C(F)F)ccc5F)c(Cl)cc24)SCC3)[C@@H](C)C1` [Example 162, 7-((S)-4-acryloyl-2-methylpiperazin-1-yl)-9-chloro-10-(5-(difluoromethyl)-2-fluorophenyl)-2,3-dihydro-5H-[1,4]thiazino[2,3,4-ij]quinazolin-5-one], the “% CAF @ 10 uM, 1h” value turned out to be 39%. Same read-out and setting: with `C=CC(=O)N1CCN(c2nc(=O)n3c4c(c(-c5ccc(F)cc5F)c(OC)cc24)SCC3)[C@@H](C)C1` [Example 103, 7-((S)-4-acryloyl-2-methylpiperazin-1-yl)-10-(2,4-difluorophenyl)-9-methoxy-2,3-dihydro-5H-[1,4]thiazino[2,3,4-ij]quinazolin-5-one] the figure was 92.5%.
